Assay results taken from the NIST ThermoML archive (doi:10.1016/j.jct.2016.10.047).
Numbers after ± are expanded uncertainties.

Experiment: heat capacity at constant pressure per volume; xn = mol fraction of the nth substance listed
Details: 102.6 kPa, Liquid, DSC, x1 = 0.08

## CCCCCCCC[n+]1ccn(C)c1.F[P-](F)(F)(F)(F)F [1-octyl-3-methylimidazolium hexafluorophosphate] + CC(C)O
306.1 K
  heat capacity: 2358000 ± 99000 J/K/m3
306.31 K
  heat capacity: 2360000 ± 99000 J/K/m3
306.53 K
  heat capacity: 2376000 ± 100000 J/K/m3
306.74 K
  heat capacity: 2371000 ± 100000 J/K/m3
306.95 K
  heat capacity: 2378000 ± 100000 J/K/m3
307.16 K
  heat capacity: 2393000 ± 100000 J/K/m3
307.38 K
  heat capacity: 2371000 ± 100000 J/K/m3
307.59 K
  heat capacity: 2387000 ± 100000 J/K/m3
307.8 K
  heat capacity: 2406000 ± 100000 J/K/m3
308.01 K
  heat capacity: 2407000 ± 100000 J/K/m3
308.23 K
  heat capacity: 2403000 ± 100000 J/K/m3
308.44 K
  heat capacity: 2417000 ± 100000 J/K/m3
308.65 K
  heat capacity: 2426000 ± 100000 J/K/m3
308.86 K
  heat capacity: 2437000 ± 100000 J/K/m3
309.07 K
  heat capacity: 2429000 ± 100000 J/K/m3
309.29 K
  heat capacity: 2462000 ± 100000 J/K/m3
309.5 K
  heat capacity: 2458000 ± 100000 J/K/m3
309.71 K
  heat capacity: 2492000 ± 110000 J/K/m3
309.92 K
  heat capacity: 2498000 ± 110000 J/K/m3
310.14 K
  heat capacity: 2474000 ± 100000 J/K/m3
310.35 K
  heat capacity: 2486000 ± 110000 J/K/m3
310.56 K
  heat capacity: 2543000 ± 110000 J/K/m3
310.77 K
  heat capacity: 2578000 ± 120000 J/K/m3
310.99 K
  heat capacity: 2348000 ± 120000 J/K/m3
311.2 K
  heat capacity: 2313000 ± 95000 J/K/m3
311.41 K
  heat capacity: 2300000 ± 94000 J/K/m3
311.62 K
  heat capacity: 2301000 ± 94000 J/K/m3
311.83 K
  heat capacity: 2289000 ± 94000 J/K/m3
312.05 K
  heat capacity: 2291000 ± 94000 J/K/m3
312.26 K
  heat capacity: 2283000 ± 93000 J/K/m3
312.47 K
  heat capacity: 2282000 ± 93000 J/K/m3
312.68 K
  heat capacity: 2283000 ± 93000 J/K/m3
312.89 K
  heat capacity: 2268000 ± 92000 J/K/m3
313.11 K
  heat capacity: 2279000 ± 93000 J/K/m3
313.32 K
  heat capacity: 2266000 ± 92000 J/K/m3
313.53 K
  heat capacity: 2277000 ± 93000 J/K/m3
313.74 K
  heat capacity: 2270000 ± 93000 J/K/m3
313.96 K
  heat capacity: 2249000 ± 91000 J/K/m3
314.17 K
  heat capacity: 2265000 ± 92000 J/K/m3
314.38 K
  heat capacity: 2249000 ± 91000 J/K/m3
314.59 K
  heat capacity: 2263000 ± 92000 J/K/m3
314.81 K
  heat capacity: 2253000 ± 91000 J/K/m3
315.02 K
  heat capacity: 2254000 ± 91000 J/K/m3
315.23 K
  heat capacity: 2257000 ± 91000 J/K/m3
315.44 K
  heat capacity: 2255000 ± 91000 J/K/m3
315.65 K
  heat capacity: 2262000 ± 91000 J/K/m3
315.87 K
  heat capacity: 2264000 ± 91000 J/K/m3
316.08 K
  heat capacity: 2265000 ± 91000 J/K/m3
316.29 K
  heat capacity: 2248000 ± 91000 J/K/m3
316.5 K
  heat capacity: 2255000 ± 91000 J/K/m3
316.72 K
  heat capacity: 2243000 ± 91000 J/K/m3
316.93 K
  heat capacity: 2245000 ± 91000 J/K/m3
317.14 K
  heat capacity: 2256000 ± 91000 J/K/m3
317.35 K
  heat capacity: 2241000 ± 91000 J/K/m3
317.57 K
  heat capacity: 2246000 ± 91000 J/K/m3
317.78 K
  heat capacity: 2253000 ± 91000 J/K/m3
317.99 K
  heat capacity: 2242000 ± 91000 J/K/m3
318.2 K
  heat capacity: 2249000 ± 91000 J/K/m3
318.42 K
  heat capacity: 2245000 ± 91000 J/K/m3
318.63 K
  heat capacity: 2234000 ± 89000 J/K/m3
318.84 K
  heat capacity: 2249000 ± 91000 J/K/m3
319.3 K
  heat capacity: 2241000 ± 88000 J/K/m3
319.64 K
  heat capacity: 2242000 ± 88000 J/K/m3
319.98 K
  heat capacity: 2241000 ± 88000 J/K/m3
320.31 K
  heat capacity: 2240000 ± 88000 J/K/m3
320.65 K
  heat capacity: 2241000 ± 88000 J/K/m3
320.99 K
  heat capacity: 2241000 ± 88000 J/K/m3
321.33 K
  heat capacity: 2240000 ± 88000 J/K/m3
321.67 K
  heat capacity: 2240000 ± 88000 J/K/m3
322 K
  heat capacity: 2240000 ± 88000 J/K/m3
322.34 K
  heat capacity: 2241000 ± 88000 J/K/m3
322.68 K
  heat capacity: 2240000 ± 88000 J/K/m3
323.02 K
  heat capacity: 2240000 ± 88000 J/K/m3
323.36 K
  heat capacity: 2240000 ± 88000 J/K/m3
323.69 K
  heat capacity: 2240000 ± 88000 J/K/m3
324.03 K
  heat capacity: 2239000 ± 87000 J/K/m3
324.37 K
  heat capacity: 2239000 ± 87000 J/K/m3
324.71 K
  heat capacity: 2239000 ± 87000 J/K/m3
325.05 K
  heat capacity: 2240000 ± 87000 J/K/m3
325.38 K
  heat capacity: 2240000 ± 87000 J/K/m3
325.72 K
  heat capacity: 2238000 ± 87000 J/K/m3
326.06 K
  heat capacity: 2239000 ± 87000 J/K/m3
326.4 K
  heat capacity: 2239000 ± 87000 J/K/m3
326.74 K
  heat capacity: 2240000 ± 87000 J/K/m3
327.07 K
  heat capacity: 2239000 ± 87000 J/K/m3
327.41 K
  heat capacity: 2241000 ± 87000 J/K/m3
327.75 K
  heat capacity: 2240000 ± 87000 J/K/m3
328.09 K
  heat capacity: 2239000 ± 87000 J/K/m3
328.43 K
  heat capacity: 2240000 ± 87000 J/K/m3
328.76 K
  heat capacity: 2240000 ± 87000 J/K/m3
329.1 K
  heat capacity: 2240000 ± 87000 J/K/m3
329.44 K
  heat capacity: 2240000 ± 87000 J/K/m3
329.78 K
  heat capacity: 2240000 ± 87000 J/K/m3
330.12 K
  heat capacity: 2240000 ± 87000 J/K/m3
330.46 K
  heat capacity: 2241000 ± 87000 J/K/m3
330.79 K
  heat capacity: 2241000 ± 87000 J/K/m3
331.13 K
  heat capacity: 2237000 ± 87000 J/K/m3
331.47 K
  heat capacity: 2242000 ± 87000 J/K/m3
331.81 K
  heat capacity: 2239000 ± 87000 J/K/m3
332.15 K
  heat capacity: 2241000 ± 87000 J/K/m3
332.48 K
  heat capacity: 2241000 ± 87000 J/K/m3
332.82 K
  heat capacity: 2240000 ± 87000 J/K/m3
333.16 K
  heat capacity: 2239000 ± 87000 J/K/m3
333.5 K
  heat capacity: 2240000 ± 87000 J/K/m3
333.84 K
  heat capacity: 2241000 ± 87000 J/K/m3
334.17 K
  heat capacity: 2241000 ± 87000 J/K/m3
334.51 K
  heat capacity: 2241000 ± 87000 J/K/m3
334.85 K
  heat capacity: 2240000 ± 87000 J/K/m3
335.19 K
  heat capacity: 2243000 ± 87000 J/K/m3
335.53 K
  heat capacity: 2243000 ± 87000 J/K/m3
335.86 K
  heat capacity: 2242000 ± 87000 J/K/m3
336.2 K
  heat capacity: 2244000 ± 87000 J/K/m3
336.54 K
  heat capacity: 2243000 ± 87000 J/K/m3
336.88 K
  heat capacity: 2246000 ± 87000 J/K/m3
337.22 K
  heat capacity: 2247000 ± 87000 J/K/m3
337.56 K
  heat capacity: 2248000 ± 87000 J/K/m3
337.89 K
  heat capacity: 2251000 ± 87000 J/K/m3
338.23 K
  heat capacity: 2251000 ± 87000 J/K/m3
338.57 K
  heat capacity: 2254000 ± 87000 J/K/m3
338.91 K
  heat capacity: 2241000 ± 87000 J/K/m3
